Source: EP4813403A1, “USE OF GLP-1R/GIPR DOUBLE-TARGET AGONIST IN PREPARING ANIMAL DRUG” (Hangzhou Zhongmeihuadong Pharmaceutical Co., Ltd., priority 2023, dated 2025)

Columns and labels:
db/db mice = experiment: Multiple administration experiment on db/db mice; assay type: in vivo; settings: for AUC 4-25 day Glu / D28 FBG(Fasting Blood Glucose) / Liver Weight / Serum ALT / Serum TBIL / Serum TG: db/db mice, s.c. every 3 days for 4 weeks, Mean±SEM, 6 mice
Experimental: "Minimum effective dose" as disclosed in the present invention refers to the minimum administration dose at which the drug effect is produced.
"Efficacy dose" as disclosed in the present invention refers to the administration dose at which the drug effect is produced.
In this study, 7-8 week old male db/db mice were used. The db/db mice were placed in an individual ventilated cage (IVC) facility with a controlled temperature (20-26°C) and humidity (40-70%) and a controlled 12:12 h light-dark cycle. The mice received food and water ad libitum. Blood were sampled at the tail tip, and the base blood glucose was measured by a Roche blood glucose meter. The mice were randomly divided into groups according to the initial blood glucose and initial body weight (n=6/group), and each group had similar body weight and blood glucose.
The mice were subcutaneously administrated every 3 days for 4 weeks. Subcutaneous administration was conducted on days 1, 4, 7, 10, 13, 16, 19, 22 and 25. Random blood glucose was recorded every 3 days throughout the study. On day 28, the fasting blood glucose was measured. Then the blood was collected by orbital blood sampling. After the orbital blood sampling, the animals were sacrificed, and the liver was taken and weighed. After 1 to 2 hours, the collected blood was centrifuged at 3000 rpm for 10 min to separate the serum. Biochemical indicators such as triglyceride (TG), alanine aminotransferase (ALT), and total bilirubin (TBIL) were determined with a biochemical analyzer. The data results were statistically analyzed using GraphPad Prism8, and the statistical differences among the groups were analyzed following T-Test. Significant differences were identified at p<0.05.

[1] = Pharmacokinetics in cynomolgus monkeys; settings: cynomolgus monkey, in vivo, sc
Experimental: After subcutaneous or intravenous administration to cynomolgus monkeys, plasma was collected and the drug concentration in plasma was determined to illustrate the in vivo pharmacokinetic properties of the compound according to the present invention. […] 70.0 µL of thawed plasma sample was taken. 70 µL of acetonitrile (containing 1 ng/ml of the internal standard) was added to precipitate protein. […] The mixture was vortexed for 5 minutes. 10 µL of the mixture solution was sampled and injected into the LC-MS/MS to determine the drug concentration in plasma. […] Table 9 Average Pharmacokinetic Parameters after Single Subcutaneous Administration to Cynomolgus Monkeys

human GLP-1R = human GLP-1R (Homo sapiens, UniProt P43220); experiment: In vitro binding activity to human GLP-1 receptor ([125I]GLP-1 displacement, crude cell membranes); set-up: expressed in transfected cells; settings: ratio of the Ki value of the endogenous ligand to the Ki value of the test compound; larger ratio = stronger binding
Sequence of human GLP-1R (P43220 24-463): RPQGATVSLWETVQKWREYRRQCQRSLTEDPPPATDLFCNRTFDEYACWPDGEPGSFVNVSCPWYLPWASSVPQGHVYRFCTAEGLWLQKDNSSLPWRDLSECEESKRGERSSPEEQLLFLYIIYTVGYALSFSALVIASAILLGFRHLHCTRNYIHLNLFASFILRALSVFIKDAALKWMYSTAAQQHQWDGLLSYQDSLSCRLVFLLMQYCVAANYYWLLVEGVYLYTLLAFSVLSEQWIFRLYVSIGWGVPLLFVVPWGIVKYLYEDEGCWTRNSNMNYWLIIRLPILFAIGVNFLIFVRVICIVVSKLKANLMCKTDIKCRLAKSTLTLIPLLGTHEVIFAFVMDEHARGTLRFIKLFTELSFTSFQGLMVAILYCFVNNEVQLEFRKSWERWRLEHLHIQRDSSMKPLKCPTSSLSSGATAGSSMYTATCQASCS

[2] = Pharmacokinetics following single administration in SD rats; settings: male, Sprague-Dawley, rat, in vivo, sc
How it was run: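 Male SD rats (230-268 g, n=3) dosed once at 50.0 nmol/kg s.c. or 25.0 nmol/kg i.v. Plasma proteins precipitated with acetonitrile containing internal standards; drug levels quantified by LC-MS/MS.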

CC[C@H](C)[C@H](NC(=O)C(C)(C)NC(=O)[C@H](Cc1ccc(O)cc1)NC(=O)[C@H](CC(=O)O)NC(=O)[C@H](CO)NC(=O)[C@@H](NC(=O)C(C)(Cc1ccccc1)NC(=O)[C@@H](NC(=O)CNC(=O)[C@H](CCC(=O)O)NC(=O)C(C)(C)NC(=O)[C@@H](N)Cc1ccc(O)cc1)[C@@H](C)O)[C@@H](C)O)C(=O)NC(C)(C)C(=O)N[C@@H](CC(C)C)C(=O)N[C@@H](CC(=O)O)C(=O)N[C@@H](CCCCN)C(=O)N[C@@H](CCC(N)=O)C(=O)N[C@@H](C)C(=O)N[C@@H](CCC(N)=O)C(=O)N[C@@H](C)C(=O)N[C@@H](CCC(=O)O)C(=O)N[C@@H](Cc1ccccc1)C(=O)N[C@H](C(=O)N[C@@H](CCCCN)C(=O)N[C@@H](Cc1c[nH]c2ccccc12)C(=O)N[C@@H](CC(C)C)C(=O)N[C@@H](CC(C)C)C(=O)N[C@@H](CCCCNC(=O)COCCOCCNC(=O)COCCOCCNC(=O)CC[C@H](NC(=O)CCCCCCCCCCCCCCCCCCCCC(=O)O)C(=O)O)C(=O)NCC(=O)NCC(=O)N1CCC[C@H]1C(=O)N[C@@H](CO)C(=O)N[C@@H](CO)C(=O)NCC(=O)N[C@@H](C)C(=O)N1CCC[C@H]1C(=O)N1CCC[C@H]1C(=O)N1CCC[C@H]1C(=O)N[C@@H](CO)C(=O)N[C@@H](CCCCN)C(N)=O)C(C)C (some centres unmarked) [Compound P017]
AUC 4-25 day Glu (db/db mice; 3 nmol/kg): 303.78 ± 33.24 mmol·days/L | D28 FBG(Fasting Blood Glucose) (db/db mice; 3 nmol/kg): 11.68 ± 1.7 mmol/L | Liver Weight (db/db mice; 3 nmol/kg): 2.14 ± 0.08 g | Serum ALT (db/db mice; 3 nmol/kg): 105.16±7.1 U/L | Serum TBIL (db/db mice; 3 nmol/kg): 0.88 ± 0.26 µmol/L | Serum TG (db/db mice; 3 nmol/kg): 1.58 ± 0.17 mmol/L | AUC 4-25 day Glu (db/db mice; 10 nmol/kg): 249.65 ± 47.65 mmol·days/L | D28 FBG(Fasting Blood Glucose) (db/db mice; 10 nmol/kg): 11.95 ± 2.51 mmol/L | Liver Weight (db/db mice; 10 nmol/kg): 2.11 ± 0.09 g | Serum ALT (db/db mice; 10 nmol/kg): 141.65±12.72 U/L | Serum TBIL (db/db mice; 10 nmol/kg): 1.59 ± 0.07 µmol/L | Serum TG (db/db mice; 10 nmol/kg): 1.19 ± 0.05 mmol/L | AUC 4-25 day Glu (db/db mice; 30 nmol/kg): 294.96 ± 11.96 mmol·days/L | D28 FBG(Fasting Blood Glucose) (db/db mice; 30 nmol/kg): 10.08 ± 0.79 mmol/L | Liver Weight (db/db mice; 30 nmol/kg): 2.35 ± 0.09 g | Serum ALT (db/db mice; 30 nmol/kg): 176.48±51.6 U/L | Serum TBIL (db/db mice; 30 nmol/kg): 1.11 ± 0.1 µmol/L | Serum TG (db/db mice; 30 nmol/kg): 1.09 ± 0.06 mmol/L | Tmax [1]: 48 ± 24 h | half-life [1]: 44.3 ± 4.8 h | GLP-1R Ki ratio (human GLP-1R): 0.56 | Tmax [2]: 24 h | half-life [2]: 18.7 ± 2.69 h

CC[C@H](C)[C@H](NC(=O)C(C)(C)NC(=O)[C@H](Cc1ccc(O)cc1)NC(=O)[C@H](CC(=O)O)NC(=O)[C@H](CO)NC(=O)[C@@H](NC(=O)C(C)(Cc1ccccc1)NC(=O)[C@@H](NC(=O)CNC(=O)[C@H](CCC(=O)O)NC(=O)C(C)(C)NC(=O)[C@@H](N)Cc1ccc(O)cc1)[C@@H](C)O)[C@@H](C)O)C(=O)NC(C)(C)C(=O)N[C@@H](CC(C)C)C(=O)N[C@@H](CC(=O)O)C(=O)N[C@@H](CCCCN)C(=O)N[C@@H](CCC(N)=O)C(=O)N[C@@H](C)C(=O)N[C@@H](CCC(N)=O)C(=O)N[C@@H](C)C(=O)N[C@@H](CCC(=O)O)C(=O)N[C@@H](Cc1ccccc1)C(=O)N[C@H](C(=O)N[C@@H](CCCCNC(=O)COCCOCCNC(=O)COCCOCCNC(=O)CC[C@H](NC(=O)CCCCCCCCCCCCCCCCCCCCC(=O)O)C(=O)O)C(=O)N[C@@H](Cc1c[nH]c2ccccc12)C(=O)N[C@@H](CC(C)C)C(=O)N[C@@H](CC(C)C)C(=O)N[C@@H](CCCCN)C(=O)NCC(=O)NCC(=O)N1CCC[C@H]1C(=O)N[C@@H](CO)C(=O)N[C@@H](CO)C(=O)NCC(=O)N[C@@H](C)C(=O)N1CCC[C@H]1C(=O)N1CCC[C@H]1C(=O)N1CCC[C@H]1C(=O)N[C@@H](CO)C(=O)N[C@@H](CCCCN)C(N)=O)C(C)C (some centres unmarked) [Compound P014]
Efficacy Dose (db/db mice; db/db mice multiple administrations, dose with blood glucose AUC p<0.05 vs. Vehicle): 3 nmol/kg | AUC 4-25 day Glu (db/db mice; 3 nmol/kg): 294 ± 40.43 mmol·days/L | D28 FBG(Fasting Blood Glucose) (db/db mice; 3 nmol/kg): 10.22 ± 1.58 mmol/L | Liver Weight (db/db mice; 3 nmol/kg): 2.26 ± 0.18 g | Serum ALT (db/db mice; 3 nmol/kg): 111.24±13.23 U/L | Serum TBIL (db/db mice; 3 nmol/kg): 0.58 ± 0.11 µmol/L | Serum TG (db/db mice; 3 nmol/kg): 1.39 ± 0.07 mmol/L | AUC 4-25 day Glu (db/db mice; 10 nmol/kg): 214.4 ± 33.73 mmol·days/L | D28 FBG(Fasting Blood Glucose) (db/db mice; 10 nmol/kg): 10.72 ± 1.75 mmol/L | Liver Weight (db/db mice; 10 nmol/kg): 2.1 ± 0.14 g | Serum ALT (db/db mice; 10 nmol/kg): 89.9±8.66 U/L | Serum TBIL (db/db mice; 10 nmol/kg): 0.58 ± 0.15 µmol/L | Serum TG (db/db mice; 10 nmol/kg): 1.29 ± 0.03 mmol/L | AUC 4-25 day Glu (db/db mice; 30 nmol/kg): 190.62 ± 26.47 mmol·days/L | D28 FBG(Fasting Blood Glucose) (db/db mice; 30 nmol/kg): 13.38 ± 3.38 mmol/L | Liver Weight (db/db mice; 30 nmol/kg): 1.89 ± 0.31 g | Serum ALT (db/db mice; 30 nmol/kg): 106.47±14.3 U/L | Serum TBIL (db/db mice; 30 nmol/kg): 0.36 ± 0.15 µmol/L | Serum TG (db/db mice; 30 nmol/kg): 1.14 ± 0.18 mmol/L | Tmax [1]: 16 ± 6.93 h | half-life [1]: 52.7 ± 6.45 h | GLP-1R Ki ratio (human GLP-1R): 0.37 | Tmax [2]: 24 h | half-life [2]: 14.8 ± 0.503 h
